Like-named read-outs stand apart in the source and are kept apart here.
Assays:
[1] = test system: adjuvant-induced arthritis in rats; test: Established Adjuvant-Induced Arthritis in Rats; assay type: in vivo, rat (male Charles River Lewis); settings: for ED50: 24 h, read-out: Adjuvant Arthritis ED50 (effective dose for 50% decrease from control paw volume)
[2] = test system: phenylquinone writhing in mice; test: Phenylquinone Writhing Test (analgesic activity); assay type: in vivo, mouse (female white mice); settings: read-out: Phenylquinone Writhing (PQW) ED50 (effective analgesic dose for 50% of the mice)
Method: Phenylquinone Writhing Test
A test compound suspended in 1% methylcellulose was given orally to fasted (17-21 hours) female white mice, 5-20 animals per double blind test. Aqueous (0.01% phenyl-p-benzoquinone) phenylquinone, 0.20 ml per mouse, was injected intraperitoneally 6 minutes before observations were begun.

[3] = rat, oral gavage, 7 daily doses, paw volume one day after last dose
[4] = mouse, oral, phenylquinone i.p. 6 minutes before 10 minutes observation

`COc1ccc(-c2cc(C(C)(C)C)sc2-c2ccc(OC)cc2)cc1` [Example 4, 5-(1,1-Dimethylethyl)-2,3-bis(4-methoxyphenyl)thiophene] was tested, and the ED50 [1, 3] was 36 mg/kg and the ED50 [2, 4] was 1.4 mg/kg.

`CC(C)Cc1ccc(C(C)C(=O)O)cc1` (stereo not drawn) [Ibuprofen, reference compound] showed an ED50 [1, 3] of 100 mg/kg and an ED50 [2, 4] of 10 mg/kg.

`CC(=O)Oc1ccccc1C(=O)O` [Aspirin, reference compound] gave an ED50 ([1]; Rattus norvegicus, po) of 305 mg/kg.

For `COc1ccc(-c2cc(C)sc2-c2ccc(OC)cc2)cc1` [Example 1, 5-Methyl-2,3-bis(4-methoxyphenyl)thiophene], the ED50 [1, 3] was 60 mg/kg and the ED50 [2, 4] was 78 mg/kg.

`COc1ccc(-c2cc(C3CCCCC3)sc2-c2ccc(OC)cc2)cc1` [Example 3, 5-Cyclohexyl-2,3-bis(4-methoxyphenyl)thiophene] was tested, and the “percent reduction in paw volume at the indicated dose” value ([1]; rat, oral gavage, 7 daily doses, at 45 mg/kg) was 34% and the ED50 [2, 4] was 47 mg/kg.

Work on `CCC(C)c1cc(-c2ccc(OC)cc2)c(-c2ccc(OC)cc2)s1` (stereo not drawn) [Example 2, 5-(1-Methylpropyl)-2,3-bis(4-methoxyphenyl)thiophene] yielded an ED50 [1, 3] of 29 mg/kg and an ED50 [2, 4] of 5.5 mg/kg.

`COc1ccc2c(c1)c(CC(=O)O)c(C)n2C(=O)c1ccc(Cl)cc1` [Indomethacin, reference compound] was tested, and the ED50 ([1]; Rattus norvegicus, po) was 0.3 mg/kg and the ED50 ([2]; Mus musculus, po) was 0.35 mg/kg.

`CCCCC1C(=O)N(c2ccccc2)N(c2ccccc2)C1=O` [Phenylbutazone, reference compound] was tested, and the ED50 [1, 3] was 10 mg/kg and the ED50 [2, 4] was 80 mg/kg.

— patent US4749712A, “Antiinflammatory and/or analgesic 5-alkylthiophenes” (E. I. Du Pont de Nemours and Company, priority 1984, dated 1988)
